US6040149A, “Assay for identifying agents which act on the ceramide-activated protein kinase, kinase suppressor of ras, and methods of using said agents” (priority 1997, dated 2000)

Legend:
EL-4 cells = test: Sphingomyelin and ceramide levels in intact EL-4 cells; assay type: cell-based, murine; details: maximally effective concentrations (n=5)
Experimental: IL-1β effects on sphingomyelin levels in EL4 cells. Time course (A) and dose response (B). Cells were grown to growth arrest (1-1.5×10^6 cells ml^-1) in DME/Ham's F12 medium (1:1, v/v) containing 10% horse serum and for 48 hours [^3 H]choline (1 μCi ml^-1). On the day of an experiment, cells were resuspended back into the same medium at 10×10^6 cells ml^-1 and stimulated with 40 ng ml^-1 IL-1β for the indicated times (A) or for 30 minutes with increasing concentrations of IL-1β (B). Human IL-1β may be obtained using methods well known to those skilled in the art. Reactions were terminated with CHCl3 :CH3 OH:HCl (100:100:1) containing 10 mM EDTA (82). Lipids in the organic phase extract were dried under N2 and subjected to mild alkaline hydrolysis (0.1 M methanolic KOH for 1 hour at 37° C.) to remove glycerophospholipids. Sphingomyelin was resolved by thin-layer chromatography (TLC) using CHCl3 :CH3 OH:CH3 COOH:H2 O (60:30:8:5) as solvent, identified by iodine vapor staining, and quantified by liquid scintillation spectrometry. As previously reported, the use of [^3 H]choline as a measure of sphingomyelin content was validated by simultaneous phospholipid phosphorus measurements. Each value represents the mean±SEM of triplicate determinations from four experiments in (A), and one representative of four similar studies performed in triplicate in (B).
Effect of IL-1β on ceramide levels in EL-4 cells. Cells were stimulated as in FIG. 12 with IL-1β (40 ng ml^-1) and ceramide contained within the organic phase extract quantified enzymatically using the E. coli diacylglycerol kinase reaction. Lipids were resolved by TLC using CHCl3 :CH3 OH:CH3 COOH (65/15/5) as solvent, autoradiographed and quantified by liquid scintillation spectrometry. Each value represents the mean±SEM of triplicate determinations from 10 experiments.
The murine thymoma EL-4 cell line is a well-defined IL-1 responsive cell line that expresses functional IL-1 receptors. Upon stimulation with IL-1, these cells up-regulate the IL-2 receptor and secrete IL-2 [62]. Initial studies were designed to investigate the effects of IL-1β on cellular sphingomyelin content. Cells, grown in Dulbecco's Modified Eagle's (DME)/Ham's F-12 medium containing 10% horse serum and [^3 H]choline (1 μCi ml^-1), were resuspended back into the same medium at 10×10^6 cells ml^-1 and stimulated with IL-1β. IL-1β is commercially available.

KSR = target: T1, KSR (Mus musculus, UniProt Q61097); test: KSR autophosphorylation in vitro; assay type: biochemical, mouse (KSR immunoprecipitated from COS-7 cells); design: Raf-1 peptides as substrate
T1 sequence (Q61097 1-873): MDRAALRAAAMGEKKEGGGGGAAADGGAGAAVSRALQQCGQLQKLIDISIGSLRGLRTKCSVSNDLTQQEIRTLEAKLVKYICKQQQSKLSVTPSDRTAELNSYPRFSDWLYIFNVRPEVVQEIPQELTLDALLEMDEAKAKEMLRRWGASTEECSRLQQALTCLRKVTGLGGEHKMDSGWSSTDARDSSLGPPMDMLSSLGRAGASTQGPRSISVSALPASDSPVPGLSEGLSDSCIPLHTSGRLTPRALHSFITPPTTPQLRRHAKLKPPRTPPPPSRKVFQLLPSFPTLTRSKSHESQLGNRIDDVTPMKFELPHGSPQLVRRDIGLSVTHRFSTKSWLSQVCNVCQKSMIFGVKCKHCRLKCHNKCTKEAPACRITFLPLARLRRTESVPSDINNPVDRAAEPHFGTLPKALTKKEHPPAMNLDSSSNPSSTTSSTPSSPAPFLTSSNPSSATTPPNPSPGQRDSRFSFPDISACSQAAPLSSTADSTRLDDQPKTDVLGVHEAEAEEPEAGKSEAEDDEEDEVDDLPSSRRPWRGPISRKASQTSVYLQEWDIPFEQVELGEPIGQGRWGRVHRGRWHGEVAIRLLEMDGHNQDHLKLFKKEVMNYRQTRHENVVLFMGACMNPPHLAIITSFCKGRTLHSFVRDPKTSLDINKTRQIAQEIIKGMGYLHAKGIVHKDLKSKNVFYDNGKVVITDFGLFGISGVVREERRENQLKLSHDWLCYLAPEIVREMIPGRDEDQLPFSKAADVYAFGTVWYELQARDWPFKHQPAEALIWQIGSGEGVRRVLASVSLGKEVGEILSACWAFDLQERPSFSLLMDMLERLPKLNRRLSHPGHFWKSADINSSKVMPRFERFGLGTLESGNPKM
Experimental: Phosphorylated KSR was resolved and detected as in FIG. 2A.
KSR was immunoprecipitated as above from 0.8 mg NP-40 lysate protein with 40 μl agarose-conjugated anti-Flag antibody at 4° C. for 4 hrs or overnight. […] The reaction was stopped by addition of Laemmli sample buffer. Samples were resolved by 7.5% sodium dodecyl sulfate-polyacrylamide gel electrophoresis (SDS-PAGE) and autoradiographed.

Raf-1 = Raf-1 phosphorylation in intact HL-60 cells; assay type: cell-based, human (HL-60 cells)
Experimental: To examine this possibility, intact HL-60 cells were metabolically labeled with ^32 P-orthophosphate for 4 hr followed by stimulation with TNF for the indicated times (FIG. 20A). […] Raf-1 proteins were resolved by SDS-PAGE and autoradiographed.
FIG. 20A--300×10^6 cells were resuspended at 37° C. in 15 ml of serum-free phosphate-free RPMI medium ([…]) containing 6 mCi ^32 P-orthophosphate. After […], cells were resuspended into the same buffer without radiolabel (5×10^7 /point) and stimulated with TNF (1 nM). At the indicated times, ice-cold serum-free phosphate-free RPMI was added and cells were homogenized as described in FIG. 17 in RIPA lysis buffer. Cell debris was removed by centrifugation at 700×g for 5 min. […] After SDS-PAGE, Raf-1 was transferred to an Immobilon PVDF (Millipore) membrane according to the vendor's instructions. […] The data (CPM/Raf protein) are presented as fold of control and represent one of three studies performed in triplicate.

| Compound | ceramide response (EL-4 cells) | effect on activation of KSR (KSR) | duration of elevated Raf-1 phosphorylation (Raf-1; TNF) | Raf-1 phosphorylation in intact HL-60 cells (Raf-1; TNF 1 nM, ceramide, sphingomyelinase 10 mU/ml) |
| --- | --- | --- | --- | --- |
| CCCCCCCCCCCCCC(=O)O[C@@H]1[C@@H](C)[C@@]2(O)[C@@H](C=C(CO)C[C@]3(O)C(=O)C(C)=C[C@@H]23)[C@@H]2C(C)(C)[C@]12OC(C)=O [TPA, 12-0-tetradecanoylphorbol-13-acetate] | failed to elicit a ceramide response | no effect |  |  |
| TNF-α |  |  | at least 20 min | increased within seconds |
